Reference: US9067974B2, “Polymyxin derivatives and uses thereof” (priority 2006, dated 2015)
Bridge positions count the residues as written; N and C are the ends. Square brackets hold non-standard residues; d marks the D form. Peptide text beside a SMILES is read from it. * marks the point of attachment. Octanoyl = CCCCCCCC(=O)*; Dab = NCC[C@H](N)C(=O)O; Abu = CC[C@H](N)C(=O)O

Columns and labels:
[1] = tested on: Acinetobacter baumannii ATCC 19606; assay: Well diffusion growth inhibition on LB agar plates (direct antibacterial activity); format: cell-based; conditions: A. baumannii ATCC 19606
Method in brief: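 Direct antibacterial activity against Acinetobacter baumannii ATCC 19606 was measured by agar well diffusion on LB plates. The plates were flooded with a suspension of approx. 10^8 cells/ml in 0.9% NaCl, and the excess was removed. Once the surface dried, five wells of 2 mm diameter were drilled per plate. The wells were filled with test compound dissolved in 0.9% NaCl, with plain 0.9% NaCl as control. After 18 h at 37° C., inhibition zone diameters were measured and converted to growth inhibition areas in square mm.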

[2] = tested on: Pseudomonas aeruginosa ATCC 27853; assay: as above; format: cell-based; conditions: Ps. aeruginosa ATCC 27853
Method in brief: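 Pseudomonas aeruginosa ATCC 27853 was tested for direct antibacterial susceptibility by agar well diffusion. A suspension of about 10^8 cells/ml in 0.9% NaCl was spread over LB agar and the excess removed. After drying, 2 mm wells were drilled and filled with compound dissolved in 0.9% NaCl, with NaCl alone as control. Plates were incubated 18 h at 37° C, and inhibition zone diameters were measured and converted to areas in square mm.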

[3] = tested on: E. coli IH3080; assay: Sensitization to rifampin: well diffusion growth inhibition on LB plates containing rifampin; format: cell-based, Escherichia coli; conditions: 4 μg of compound
[4] = tested on: A. baumannii ATCC 19606; assay: as above; format: cell-based, Acinetobacter baumannii; conditions: 4 μg of compound
[5] = tested on: Ps. aeruginosa ATCC 27853; assay: as above; format: cell-based, Pseudomonas aeruginosa; conditions: 4 μg of compound
[6] = tested on: E. coli CCUG41421; assay: E-test MIC of antibiotics on Mueller-Hinton agar with or without NAB7061 (4 μg/ml); sensitization factor = MIC ratio absence/presence; format: cell-based, Escherichia coli
Protocol: (§1) MICs were determined by using E-strips (Biodisk Ltd., Solna, Sweden) according to the manufacturer's instructions.
(§2) The strains originated from ATCC (11 strains), CCUG (11 strains), and NCTC (The National Collection of Type Cultures, Colindale, U.K.; 2 strains). Eight strains (the F-strains) were purchased from Mobidiag Ltd., Helsinki, Finland. The source of E. coli IH3080 has been given in Example 2. Sensitization factor was defined as in Example 7.

[7] = tested on: E. coli CCUG41422; assay: as above; format: cell-based, Escherichia coli
Protocol: as §1, §2

[8] = tested on: E. coli CCUG41424; assay: as above; format: cell-based, Escherichia coli
Protocol: as §1, §2

[9] = tested on: E. coli CCUG41425; assay: as above; format: cell-based, Escherichia coli
Protocol: as §1, §2

[10] = tested on: E. coli CCUG41427; assay: as above; format: cell-based, Escherichia coli
Protocol: as §1, §2

[11] = tested on: E. coli CCUG41432; assay: as above; format: cell-based, Escherichia coli
Protocol: as §1, §2

[12] = tested on: E. coli NCTC13351; assay: as above; format: cell-based, Escherichia coli
Protocol: as §1, §2

[13] = tested on: K. pneumoniae CCUG45421; assay: as above; format: cell-based, Klebsiella pneumoniae; conditions: NAB 7061 4 μg/ml
Protocol: as §1, §2

[14] = tested on: K. pneumoniae F136; assay: as above; format: cell-based, Klebsiella pneumoniae
Protocol: as §1, §2

[15] = tested on: K. pneumoniae F144; assay: as above; format: cell-based, Klebsiella pneumoniae
Protocol: as §1, §2

[16] = tested on: K. pneumoniae F145; assay: as above; format: cell-based, Klebsiella pneumoniae
Protocol: as §1, §2

[17] = tested on: E. cloacae CCUG52947; assay: as above; format: cell-based, Enterobacter cloacae
Protocol: as §1, §2

[18] = tested on: E. cloacae F230; assay: as above; format: cell-based, Enterobacter cloacae
Protocol: as §1, §2

[19] = tested on: E. cloacae F232; assay: as above; format: cell-based, Enterobacter cloacae
Protocol: as §1, §2

[20] = tested on: S. maltophilia ATCC17444; assay: as above; format: cell-based
Protocol: as §1, §2

[21] = tested on: three strains of A. baumannii; assay: E-test sensitization by NAB7061 (4 μg/ml), summary over A. baumannii strains; format: cell-based, Acinetobacter baumannii
Excerpt: as §2
Strains of K. pneumoniae remained somewhat more resistant to both antibiotics, and the sensitization factors varied between 10 and 500.

CCCCCCCC(=O)N[C@H](C(=O)N[C@@H](CC)C(=O)N[C@H]1CCNC(=O)[C@H]([C@@H](C)O)NC(=O)[C@H](CCN)NC(=O)[C@H](CCN)NC(=O)[C@H](CC(C)C)NC(=O)[C@@H](Cc2ccccc2)NC(=O)[C@H](CCN)NC1=O)[C@@H](C)O [NAB 7061, OA-Thr-Abu-cy[Dab-Dab-DPhe-Leu-Dab-Dab-Thr-]] (Octanoyl-T[Abu][Dab][Dab][dF]L[Dab][Dab]T; lactam 3-C)
Antibacterial activity (growth inhibition area around a well) ([1]; 4 μg per well): 0 square millimeters | Antibacterial activity (growth inhibition area around a well) ([1]; 10 μg per well): 0 square millimeters | Antibacterial activity (growth inhibition area around a well) ([2]; 4 μg per well): 0 square millimeters | Antibacterial activity (growth inhibition area around a well) ([2]; 10 μg per well): 0 square millimeters | Antibacterial activity in the presence of rifampin (growth inhibition area around a well) ([3]; rifampin 0 μg/ml): 0 square millimeters | Antibacterial activity in the presence of rifampin (growth inhibition area around a well) ([3]; rifampin 0.1 μg/ml): 113 square millimeters | Antibacterial activity in the presence of rifampin (growth inhibition area around a well) ([3]; rifampin 1.0 μg/ml): 155 square millimeters | Antibacterial activity in the presence of rifampin (growth inhibition area around a well) ([4]; rifampin 0 μg/ml): 0 square millimeters | Antibacterial activity in the presence of rifampin (growth inhibition area around a well) ([4]; rifampin 0.1 μg/ml): 28 square millimeters | Antibacterial activity in the presence of rifampin (growth inhibition area around a well) ([4]; rifampin 0.3 μg/ml): 50 square millimeters | Antibacterial activity in the presence of rifampin (growth inhibition area around a well) ([5]; rifampin 0 μg/ml): 0 square millimeters | Antibacterial activity in the presence of rifampin (growth inhibition area around a well) ([5]; rifampin 0.1 μg/ml): 0 square millimeters | Antibacterial activity in the presence of rifampin (growth inhibition area around a well) ([5]; rifampin 0.3 μg/ml): 0 square millimeters | MIC of clarithromycin in the presence of 4 μg/ml of NAB 7061 [6]: 0.125 µg/mL | MIC of clarithromycin in the presence of 4 μg/ml of NAB 7061 [7]: 0.25 µg/mL | Sensitization factor to rifampin ([7]; NAB 7061 4 μg/ml): 170-256 | MIC of clarithromycin in the presence of 4 μg/ml of NAB 7061 [8]: 0.125 µg/mL | Sensitization factor to rifampin ([8]; NAB 7061 4 μg/ml): 85-94 | MIC of clarithromycin in the presence of 4 μg/ml of NAB 7061 [9]: 0.047 µg/mL | MIC of clarithromycin in the presence of 4 μg/ml of NAB 7061 [10]: 0.064 µg/mL | MIC of rifampin in the presence of 4 μg/ml of NAB 7061 [10]: 0.032 to 0.064 µg/mL | Sensitization factor to rifampin ([10]; NAB 7061 4 μg/ml): 100-250 | MIC of clarithromycin in the presence of 4 μg/ml of NAB 7061 [11]: 0.064 µg/mL | MIC of rifampin in the presence of 4 μg/ml of NAB 7061 [11]: 0.032 µg/mL | Sensitization factor to rifampin ([11]; NAB 7061 4 μg/ml): 180-250 | MIC of clarithromycin in the presence of 4 μg/ml of NAB 7061 [12]: 0.032 µg/mL | MIC of rifampin in the presence of 4 μg/ml of NAB 7061 [12]: 0.032 to 0.047 µg/mL | Sensitization factor to rifampin ([12]; NAB 7061 4 μg/ml): 340-500 | Sensitization factor to rifampin [13]: 10-20 | MIC of clarithromycin in the presence of 4 μg/ml of NAB 7061 [14]: 2 µg/mL | MIC of rifampin in the presence of 4 μg/ml of NAB 7061 [14]: 0.75 µg/mL | MIC of rifampin in the presence of 4 μg/ml of NAB 7061 [15]: 0.19 µg/mL | Sensitization factor to rifampin ([15]; NAB 7061 4 μg/ml): >170 | MIC of clarithromycin in the presence of 4 μg/ml of NAB 7061 [16]: 0.25 µg/mL | MIC of rifampin in the presence of 4 μg/ml of NAB 7061 [16]: 0.19 to 0.25 µg/mL | MIC of rifampin in the presence of 4 μg/ml of NAB 7061 [17]: 0.032 to 0.047 µg/mL | Sensitization factor to rifampin ([17]; NAB 7061 4 μg/ml): 500-1000 | MIC of clarithromycin in the presence of 4 μg/ml of NAB 7061 [18]: 0.047 µg/mL | MIC of rifampin in the presence of 4 μg/ml of NAB 7061 [18]: 0.016 to 0.032 µg/mL | MIC of clarithromycin in the presence of 4 μg/ml of NAB 7061 [19]: 0.094 µg/mL | MIC of rifampin in the presence of 4 μg/ml of NAB 7061 [19]: 0.023 µg/mL | MIC of rifampin in the presence of 4 μg/ml of NAB 7061 [20]: 2 µg/mL | Resulting MIC to rifampin in the presence of NAB7061 (4 μg/ml) [21]: ≤ 0.125 µg/mL
